We go through one compound from patent publication US7998985B2, “1,5-diphenyl-3-pyridinylamino-1,5-dihydropyrrolidin-2-one as CB1 receptor modulator” (Eli Lilly and Company, priority 2006, dated 2011).

The target of one experiment is T1, rat CB1 receptor (Rattus norvegicus, UniProt P20272).
T1 construct: purchased Applied Cell Sciences, Gaithersburg, Md; PerkinElmer Life Sciences, Boston, Mass; host or cells: CHO cells (recombinant expression), membranes
In words: Antibody-capture SPA GTP-γ-35S binding, antagonist/inverse agonist mode, rat CB1 (CHO membranes). Format: biochemical. The conditions noted are these: Rat CB1 (CHO cells) membranes; vs saturating methanandamide; mean ± SEM; read-out: Inverse Agonist Potency (Kb). The protocol: Antibody-Capture SPA GTP-γ-^35S Binding
In cell membranes expressing human or rat CB1 or CB2 receptor, test (3R,5R)-3-[1-methyl-1-(6-trifluoromethyl-pyridin-3-yl)-ethylamino]-1-(4-trifluoromethyl-phenyl)-5-(3-trifluoromethoxy-phenyl)-pyrrolidin-2-one 4-methylbenzenesulfonate (referred to as “Example 2”) for its antagonist/inverse agonist functional GTP-binding. In a 96 well format using a modified antibody capture technique (DeLapp et al., 1999), measure GTP-γ^35S binding. Briefly incubate for 30 minutes at room temperature the GTP-binding assay buffer (20 mM Hepes, 100 mM NaCl, 5 mM MgCl2, pH 7.4), the CHO or Sf9 cell membranes expressing CB1 or CB2, (Applied Cell Sciences, Gaithersburg, Md.; PerkinElmer Life Sciences, Boston, Mass.; prepare membranes as previously described (DeLapp et al., 1999)), Example 2 and the 500 pM GTP-γ-^35S (PerkinElmer Life Sciences, Boston, Mass.). Perform antagonist dose responses in the presence of a saturating dose of a full agonist (methanandamide). […]
To analyze data, subtract background from all wells. […] Determine Kb values using a modification of the Cheng-Prusoff relationship: Kb=IC50/(1+[agonist]/EC50) where IC50 is determined from a four parameter fit of displacement curves, [agonist]=EC50 of full agonist, and EC50 is determined from a four parameter fit of a full agonist concentration response curve (Cheng and Prusoff 1973). […]

The test system of a further experiment is Male Sprague Dawley rats. Briefly: cFos activation in rat brain, alone and with clozapine. The format is in vivo. An excerpt:
Characterize Example 2 for its ability to activate gene expression and neurochemical efflux in cortical and subcortical regions and to interact with the prototypical atypical antipsychotic agent clozapine.
Methods: House Male Sprague Dawley rats (155-175 g) for 1 week prior to experimentation. Prepare Example 2 in a vehicle suspension of 1% Sodium carboxymethyl cellulose, 0.5% Sodium lauryl sulfate, 0.05% Antifoam, 0.085% Povidone and administer, to rats (e.g., male Sprague Dawley rats, 155-175 g) p.o. (a dose of 1 or 10 mg/kg). Control rats receive vehicle. Administer clozapine (Sigma) 1 hour later at a concentration of 8 mg/mL in a vehicle solution of 0.4% lactic acid at a dose of 8 mg/kg s.c. Sacrifice animals (n=7-8 per group) by decapitation 2 hours after administration of clozapine or vehicle for clozapine. Remove rapidly whole brains and immediately immerse in isopentane (2-methyl butane) over dry ice. Cut coronal sections through the prefrontal cortex (PFC), nucleus accumbens (NAc) and dorsolateral striatum (DL-Str) at 14 μm and perform Fos immunohistochemistry. Assess atypicality index (Robertson et al., 1994) using the following formula: Atypical Index=(NAcD−NAcV)−(DL-StrD−DL-StrV) where the average number of Fos-li neurons in NAc=nucleus accumbens, D=drug, V=vehicle, DL-Str=dorsolateral striatum. Analyze data using a one-way ANOVA followed by Newman-Keul's post hoc test (Graph Pad Prism 4.03). Set the level of significance at P<0.05.

Another experiment concerns the target T2, human CB2 receptor (Homo sapiens, UniProt P34972).
T2 construct: purchased Applied Cell Sciences, Gaithersburg, Md; PerkinElmer Life Sciences, Boston, Mass; host or cells: Sf9 insect cells (recombinant expression), membranes
Briefly: GTP-γ-35S binding, agonist mode, human CB2 (Sf9 membranes). The format is biochemical. (In general: GTPγS is a poorly hydrolysed GTP analogue; its binding reports G protein activation.)

The test system of experiment [1] is diet-induced obese (DIO) male Long-Evans rats. Briefly: Feeding model in diet-induced obese (DIO) rats, 14 days. Format: in vivo, rat. An excerpt: Methods: Administer Example 2 to diet-induced obese (DIO) male Long-Evans rats. Establish DIO by ad lib feeding from weanling of a diet consisting of 40% fat, 39% carbohydrate and 21% protein caloric content for at least 12 weeks. Define compound potency by T17 (the dose required to produce a difference from the vehicle group of 17 grams). This represents a minimally biologically relevant reduction of 3-4% of body weight compared to vehicle treatment after 2 weeks.

T2 sequence (P34972 whole entry): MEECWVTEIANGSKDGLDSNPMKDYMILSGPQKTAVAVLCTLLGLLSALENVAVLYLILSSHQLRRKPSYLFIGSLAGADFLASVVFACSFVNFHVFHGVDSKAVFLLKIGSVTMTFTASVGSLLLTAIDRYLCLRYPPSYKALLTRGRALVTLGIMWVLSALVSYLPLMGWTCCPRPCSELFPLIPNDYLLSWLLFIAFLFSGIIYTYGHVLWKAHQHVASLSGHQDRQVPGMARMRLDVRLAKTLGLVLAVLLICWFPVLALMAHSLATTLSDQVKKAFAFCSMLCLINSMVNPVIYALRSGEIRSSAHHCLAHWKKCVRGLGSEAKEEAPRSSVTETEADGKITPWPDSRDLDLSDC
T1 sequence (P20272 whole entry): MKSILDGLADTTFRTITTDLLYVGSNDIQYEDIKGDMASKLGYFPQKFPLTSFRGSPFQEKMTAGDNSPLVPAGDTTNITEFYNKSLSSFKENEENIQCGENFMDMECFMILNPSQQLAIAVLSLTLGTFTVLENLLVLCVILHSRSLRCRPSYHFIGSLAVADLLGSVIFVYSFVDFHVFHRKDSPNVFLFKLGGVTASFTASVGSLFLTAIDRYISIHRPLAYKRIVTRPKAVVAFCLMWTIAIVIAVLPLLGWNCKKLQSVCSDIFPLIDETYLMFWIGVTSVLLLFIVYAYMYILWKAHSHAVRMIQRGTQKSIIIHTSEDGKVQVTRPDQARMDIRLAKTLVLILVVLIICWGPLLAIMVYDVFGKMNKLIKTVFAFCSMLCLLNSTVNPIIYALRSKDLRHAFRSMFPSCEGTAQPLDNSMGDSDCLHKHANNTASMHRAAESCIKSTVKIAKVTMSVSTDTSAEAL

What is called Kb is the equilibrium dissociation constant of an antagonist, usually derived from a functional assay. Take `CC(C)(N[C@@H]1C[C@H](c2cccc(OC(F)(F)F)c2)N(c2ccc(C(F)(F)F)cc2)C1=O)c1ccc(C(F)(F)F)nc1.Cc1ccc(S(=O)(=O)O)cc1` [Example 2, (3R,5R)-3-[1-methyl-1-(6-trifluoromethyl-pyridin-3-yl)-ethylamino]-1-(4-trifluoromethyl-phenyl)-5-(3-trifluoromethoxy-phenyl)-pyrrolidin-2-one, 4-methylbenzenesulfonate (1:1)]: on rat CB1 receptor, the Kb amounted to 1.27 ± 0.2 nM. In addition, the “effect on clozapine-induced Fos reactivity” value with Male Sprague Dawley rats (1 and 10 mg/kg p.o. given with clozapine 8 mg/kg s.c.) is given as “enhancing the effects of clozapine alone”. Also, the “cortical and subcortical Fos reactivity, compound alone” value with Male Sprague Dawley rats (Example 2 1 or 10 mg/kg p.o.) is “tend to or significantly enhance cortical and subcortical Fos reactivity”. Moreover, the “atypicality (ventral vs. dorsal striatal Fos impact)” value in the experiment on Male Sprague Dawley rats (Example 2 added to clozapine) was “a neural signature of greater atypicality”. Besides, the “Agonist Potency EC50 (nM)” value on human CB2 receptor is “No measurable activity”. The “Agonist Efficacy %” value on human CB2 receptor (normalised to full agonist methanandamide) stood at 0%. For the same compound, the “fat free mass (QNMR)” value in experiment [1] was “minimal changes in fat free mass at one of the highest doses”. In addition, in experiment [1] (14-day oral treatment), the cumulative body weight entry is reported as “reduction of cumulative body weight”. Besides, the “T17 (dose producing a 17 gram body weight difference from vehicle)” value in experiment [1] (14-day oral treatment, estimated) was 0.13 mg/kg. Also, the “efficacy dose (T17) for change in body mass from control” value in experiment [1] (daily oral, 14 days, as restated) is listed as 0.13 mg/kg/day. The “fat mass (QNMR)” value in experiment [1] (doses 0.1-10 mg/kg) is given as “significant reductions in fat mass”. Moreover, the cumulative food intake result in experiment [1] (once daily orally, 14 days) is “Decrease cumulative food intake”.
